Earlier results on one compound are cited in patent US4808590A (priority 1988, dated 1989).

For the data set the following is noted: British Patent Specification Nos. 1,078,049 and 932,875; cited from earlier work.

For the compound `C=C1C[C@](OC)([C@H](O)C(=O)N[C@@H](OC)[C@@H]2C[C@@H](O)C(C)(C)[C@@H](C[C@@H](COC)OC)O2)O[C@H](C)[C@@H]1C` [Pederin], the antimitotic activity result was “shows antimitotic activity”.
